Data taken from article PMC5007443, “TNIK inhibition abrogates colorectal cancer stemness” (Nature Communications, 2016).

Assays:
[1] = system: HCT116 xenografts; test: HCT116 xenograft growth in BALB/c-nu/nu mice; format: in vivo, mouse; details: oral, 40 or 80 mg kg−1 BID, 14 days
Method: Five million HCT116 cells suspended in medium containing 25% Matrigel (BD Biosciences) were inoculated into the subcutaneous tissues of 9-week-old female BALB/c nude mice. When the tumour volume reached ∼80 mm^3, the mice were randomized according to tumour volume (9 mice per group).
Tumour volume was estimated based on the formula: (length × width^2)/2. The tumour volume (twice a week) and body weight (every day) of each mouse were recorded. The patient-derived spheroids and xenografts were established after obtaining informed consent from the donors.

[2] = system: TCF/LEF transcriptional activity; test: TCF/LEF luciferase reporter in Wnt3a-treated HEK293 cells; format: cell-based, human; details: Wnt3a-treated HEK293, 24 h
Method: HEK293 cells were transiently transfected with pGL4.49[luc2P/TCF-LEF-RE/Hygro] reporter vector (Promega) using Fugene HD Transfection Reagent (Promega; Fig. 2f). After overnight incubation, the cells were then treated with 10 mM LiCl (Sigma-Aldrich). Luciferase activity was measured using the ONE-Glo Luciferase Assay System (Promega). The assay was performed in triplicate and repeated at least two times.
In some experiments cells were treated with mouse Wnt3a (PeproTech) (Fig. 1c) or human Wnt3a (R&D Systems; Fig. 2f) before the measurements, as indicated in the figure legends.

[3] = system: Apc^min/+ mice; test: Intestinal tumorigenesis in Apc min/+ mice; format: in vivo, mouse; details: NCB-0846 HCl oral BID 22.5, 45, 90 mg kg−1, 35 days
Method: The mouse gut was filled with 10% buffered formalin (Sigma-Aldrich) via the anus immediately after sacrifice and opened longitudinally. The number and maximum diameter/area of tumours were measured by stereoscopic microscopy as described previously. Differences at P values of<0.05 were considered to be statistically significant.

In the case of O[C@H]1CC[C@@H](Oc2cccc3cnc(Nc4ccc5nc[nH]c5c4)nc23)CC1 [NCB-0846, cis-4-(2-(3H-benzo[d]imidazol-5-ylamino)quinazolin-8-yloxy)cyclohexanol], the growth of tumours [1] is reported as “suppressed”, the TCF/LEF transcriptional activity [2] is reported as “inhibited” and the “effect on colon tumorigenesis” value [3] is reported as “not statistically significant”. For the same molecule, the “multiplicity and dimensions of tumours in the small intestine” value [3] was “dose dependently reduced”.
